Results on 10 compounds are retold here after US20050070508A1, “Napthalene carboxamides and their derivatives useful as new anti-angiogenic agents” (AGOURON PHARMACEUTICALS, INC., priority 2003, published 2005).

Assay [1] has as its target T1, human vascular endothelial growth factor receptor 2 (VEGF-R2) (Homo sapiens, UniProt P35968, DEL940-989/E990V).
T1 construct: VEGF-R2D50 contains residues 806-939 and 990-1171; made in house; host or cells: baculovirus/insect cell system
Nature of the assay: VEGF-R2 coupled spectrophotometric assay (FLVK). It is filed as biochemical. As to conditions: unphosphorylated VEGF-R2D50 (FLVK). The text has this:
This construct determines the ability of a test compound to inhibit tyrosine kinase activity. A construct (VEGF-R2D50) of the cytosolic domain of human vascular endothelial growth factor receptor 2 (VEGF-R2) lacking the 50 central residues of the 68 residues of the kinase insert domain was expressed in a baculovirus/insect cell system. Of the 1356 residues of full-length VEGF-R2, VEGF-R2D50 contains residues 806-939 and 990-1171, and also one point mutation (E990V) within the kinase insert domain relative to wild-type VEGF-R2. Autophosphorylation of the purified construct was performed by incubation of the enzyme at a concentration of […] in the presence of 3 mM ATP and 40 mM MgCl2 in 100 mM HEPES, pH 7.5, containing 5% glycerol and 5 mM DTT, at 4° C. for 2 h. […] See Parast et al., Biochemistry, 37, 16788-16801 (1998).
The production of ADP from ATP that accompanies phosphoryl transfer was coupled to oxidation of NADH using phosphoenolpyruvate (PEP) and a system having pyruvate kinase (PK) and lactic dehydrogenase (LDH). The oxidation of NADH was monitored by following the decrease of absorbance at 340 nm (e340=6.22 cm^−1 mM^−1) using a Beckman DU 650 spectrophotometer. Assay conditions for phosphorylated VEGF-R2D50 (indicated as FLVK-P in the tables below) were the following: 1 mM PEP; […]; 50 units of LDH/mL; 20 units of PK/mL; 5 mM DTT; 5.1 mM poly(E4Y1); 1 mM ATP; and 25 mM MgCl2 in 200 mM HEPES, pH 7.5. Assay conditions for unphosphorylated VEGF-R2D50 (indicated as FLVK in the tables) were the following: 1 mM PEP; […]; 50 units of LDH/mL; 20 units of PK/mL; 5 mM DTT; 20 mM poly(E4Y1); 3 mM ATP; and 60 mM MgCl2 and 2 mM MnCl2 in 200 mM HEPES, pH 7.5. Assays were initiated with 5 to 40 nM of enzyme. Ki values were determined by measuring enzyme activity in the presence of varying concentrations of test compounds. The percent inhibition at 50 nm (% inhibition @ 50 nm) was determined by linear least-squares regression analysis of absorbance as a function of time. The binding inhibitions were fitted to equation as described by Morrison. The data were analyzed using Enzyme Kinetic and Kaleidagraph software.

Assay [2] concerns human umbilical vein endothelial cells (HUVEC). Nature of the assay: HUVEC+VEGF Proliferation Assay. Format: cell-based. As to conditions: VEGF-stimulated proliferation, final VEGF 6 ng/mL, 72 hours, MTT dye reduction. The protocol:
This assay determines the ability of a test compound to inhibit the growth factor-stimulated proliferation of human umbilical vein endothelial cells (“HUVEC”). HUVEC cells (passage 3-4, Clonetics, Corp.) were thawed into EGM2 culture medium (Clonetics Corp) in T75 flasks. Fresh EGM2 medium was added to the flasks 24 hours later. Four or five days later, cells were exposed to another culture medium (F12K medium supplemented with 10% fetal bovine serum (FBS), […] endothelial cell growth supplement (ECGS), and 0.1 mg/mL heparin). Exponentially-growing HUVEC cells were used in experiments thereafter. Ten to twelve thousand HUVEC cells were plated in 96-well dishes in […] of rich, culture medium (described above). The cells were allowed to attach for 24 hours in this medium. The medium was then removed by aspiration and […] of starvation media (F12K+1% FBS) was added to each well. After 24 hours, […] of test agent dissolved in 1% DMSO in starvation medium or this vehicle alone was added into each treatment well; the final DMSO concentration was 0.1%. One hour later, […] of VEGF (30 ng/mL) in starvation media was added to all wells except those containing untreated controls; the final VEGF concentration was 6 ng/mL. Cellular proliferation was quantified 72 hours later by MTT dye reduction, at which time cells were exposed for 4 hours MTT (Promega Corp.). Dye reduction was stopped by addition of a stop solution (Promega Corp.) and absorbance at 595 nm was determined on a 96-well spectrophotometer plate reader.

T1 sequence (P35968 with tags, fused parts or gaps DEL940-989/E990V limits assumed): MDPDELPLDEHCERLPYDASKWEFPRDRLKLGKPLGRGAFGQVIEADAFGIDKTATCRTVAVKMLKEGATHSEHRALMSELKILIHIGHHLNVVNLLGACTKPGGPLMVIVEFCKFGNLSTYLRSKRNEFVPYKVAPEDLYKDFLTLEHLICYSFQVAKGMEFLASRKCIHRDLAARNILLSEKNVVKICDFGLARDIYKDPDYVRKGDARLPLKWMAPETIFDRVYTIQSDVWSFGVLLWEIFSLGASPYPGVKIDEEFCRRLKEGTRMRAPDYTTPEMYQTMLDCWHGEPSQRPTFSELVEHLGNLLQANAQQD

`CCCCNC(=O)c1cccc2cc(Oc3ccnc4cc(OCCN5CCCC5)ccc34)ccc12` [Example 49, 6-[7-(2-Pyrrolidin-1-yl-ethoxy)-quinolin-4-yloxy]-naphthalene-1-carboxylic Acid Butylamide]: the Ki in assay [1] was 1 to 10 nM. Moreover, the IC50 in assay [2] was 1 to 10 nM.
In turn, `O=C(NCCCN1CCOCC1)c1cccc2cc(Oc3ccnc4ccsc34)ccc12` [Example 39, 6-(Thieno[3,2-b]pyridin-7-yloxy)-naphthalene-1-carboxylic acid (3-morpholin-4-yl-propyl)-amide] yielded a Ki in assay [1] of 1 to 10 nM. Also, the IC50 in assay [2] lay in the range of 1 to 10 nM.
`CNC(=O)c1cccc2cc(Oc3ccnc4cc(C(=O)N(C)CCO)sc34)ccc12` [Example 8, N-(2-Hydroxyethyl)-N-methyl-7-({5-[(methylamino)carbonyl]-2-naphthyl}oxy)thieno[3,2-b]pyridine-2-carboxamide]: the inhibitory constant (Ki) in assay [1] lay in the range of 1 to 10 nM. For the same compound, the IC50 in assay [2] was > 10 nM.
The matching figures for `O=C(Nc1ccc(N2CCOCC2)nc1)c1cccc2cc(Oc3ccnc4ccsc34)ccc12` [Example 35, 6-(Thieno[3,2-b]pyridin-7-yloxy)-naphthalene-1-carboxylic acid (6-morpholin-4-yl-pyridin-3-yl)-amide]: < 1 nM and 1 to 10 nM.
For the compound `CNC(=O)c1cccc2cc(Oc3ccnc4cc(OCCN5CCOCC5)ccc34)ccc12` [Example 45, 6-[7-(2-Morpholin-4-yl-ethoxy)-quinolin-4-yloxy]-naphthalene-1-carboxylic Acid Methylamide], in assay [1], the Ki is < 1 nM. Besides, in assay [2], the 50% inhibitory concentration (IC50) is < 1 nM.
As to `CNC(=O)c1cccc2cc(Oc3ccnc4cc(C(=O)N(C)C)sc34)ccc12` [Example 4, N,N-Dimethyl-7-({5-[(methylamino)carbonyl]-2-naphthyl}oxy) thieno[3,2-b]pyridine-2-carboxamide], in assay [1], the inhibitory constant (Ki) was < 1 nM. Moreover, in assay [2], the IC50 lay within 1 to 10 nM.
The matching figures for `O=C(Nc1ccc(N2CCC(O)CC2)nc1)c1cccc2cc(Oc3ccnc4ccsc34)ccc12` [Example 34, 6-(Thieno[3,2-b]pyridin-7-yloxy)-naphthalene-1-carboxylic acid (4-hydroxy-3,4,5,6-tetrahydro-2H-[1,2′]bipyridinyl-5′-yl)-amide]: < 1 nM and 1 to 10 nM.
The matching figures for `CNC(=O)c1cccc2cc(Oc3ccnc4cc(C(=O)N5CC[C@H](OC)C5)sc34)ccc12` [Example 3, 6-[(2-{[(3S)-3-methoxypyrrolidin-1-yl]carbonyl}thieno[3,2-b]pyridin-7-yl)oxy]-N-methyl-1-naphthamide]: < 1 nM and < 1 nM.
Take `O=C(NCCCN1CCOCC1)c1cccc2cc(Oc3ncnc4ccsc34)ccc12` [Example 42, 6-(Thieno [3,2-d]pyrimidin-4-yloxy)-naphthalene-1-carboxylic acid (3-morpholin-4-yl-propyl)-amide]: the inhibitory constant (Ki) in assay [1] fell in the range of 1 to 10 nM. Also, in assay [2], the IC50 is > 10 nM.
As for `Cn1ccnc1-c1cc2nccc(Oc3ccc4c(C(=O)NCCCN5CCOCC5)cccc4c3)c2s1` [Example 30, 6-[2-(1-Methyl-1H-imidazol-2-yl)-thieno[3,2-b]pyridin-7-yloxy]-naphthalene-1-carboxylic acid (3-morpholin-4-yl-propyl)-amide], the inhibition constant (Ki) in assay [1] was < 1 nM. Further, the IC50 in assay [2] is < 1 nM.
